Assays:
[1] = tested on: HIV-1 IIIB infected MT-4 cells; test: anti-HIV activity test (MTT viable cell count); format: cell-based; settings: Human immunodeficiency virus 1, MT4, 120 h, MOI 0.01, 5 days, MTT method, read-out: EC50 (concentration at which cellular damage due to HIV infection is inhibited by 50%)
Protocol: In Test Example 1, the amine compound according to the present invention was subjected to the anti-HIV activity test. HIV-1 IIIB infected MT-4 cells (3.0×10^4 cells/well, MOI (multiplicity of infection): 0.01) were added to a 96-well microtiter plate together with the test compound (compound 1, A, or B) at a different concentration immediately after infection. After culturing the cells at 37° C. for 5 days using a carbon dioxide incubator, the number of viable cells was measured by the MTT (tetrazolium) method ([…] et al., J. Virol. Method, 20, 309-321, 1988).

[2] = hydrolysis in serum (background finding of the inventors); format: in vitro ADME; settings: species not stated
[3] = oral absorption properties

Row | Compound | EC50 [1] [nM] | hydrolysis in serum [2] | oral absorption properties [3]
1 | CCCN(CCC)CCCCN(CCC(=O)OCCN(C)C)Cc1ccc(CN(Cc2ncc[nH]2)Cc2nccn2C)cc1 [Compound 1, 2-dimethylaminoethyl 3-[(4-dipropylaminobutyl)(4-{[(1H-imidazol-2-ylmethyl)(1-methyl-1H-imidazol-2-ylmethyl)amino]methyl}benzyl)amino]propionate] | 3 |  | 
2 | CCCN(CCC)CCCCN(CCC(=O)OCC)Cc1ccc(CN(Cc2ncc[nH]2)Cc2nccn2C)cc1 [Compound B, ethyl 3-[(4-dipropylaminobutyl)(4-{[(1H-imidazol-2-ylmethyl)(1-methyl-1H-imidazol-2-ylmethyl)amino]methyl}benzyl)amino]propionate] | 3 | hydrolyzed to only a small extent in serum | 
3 | CCCN(CCC)CCCCN(CCC(=O)O)Cc1ccc(CN(Cc2ncc[nH]2)Cc2nccn2C)cc1 [Compound A, 3-[(4-dipropylaminobutyl)(4-{[(1H-imidazol-2-ylmethyl)(1-methyl-1H-imidazol-2-ylmethyl)amino]methyl}benzyl)amino]propionic acid] | 3 |  | poor oral absorption properties
